# Source: patent US7157442B2, “Antibacterial compound” (Sankyo Company, Limited, priority 1999, dated 2007)
# Legend:
# [1] = tested on: Mycobacterium avium Strain NIHJ 1605; experiment: In vitro antibacterial activity (1): minimum inhibitory concentration, broth dilution; assay type: cell-based; conditions: NIHJ1605, 144 h; Mycobacterium avium NIHJ 1605; Middlebrook 7H9 broth, aerobic culture at 37° C. for 6 days
# M. tuberculosis Kato = experiment: In vitro antibacterial activity (2): MIC by broth dilution method; assay type: cell-based; conditions: Mycobacterium tuberculosis; Middlebrook 7H9 broth, 35° C. for 10–21 days; read-out: MICs against Mycobacterium tuberculosis, M. tuberculosis Kato
# Protocol: The minimum inhibitory concentration (MICs) of the test compounds against Mycobacterium tuberculosis was determined by the broth dilution method. After the solution of a test compound in dimethyl sulfoxide (DMSO) or distilled water was diluted with 50% aqueous acetone or distilled water, each two-fold dilution of the solution was carried out with Middlebrook 7H9 broth containing 0.05% Tween 80, 0.2% dextrose and Middlebrook ADC enrichment. […] The microorganisms cultivated on Ogawa medium were suspended uniformly in Middlebrook 7H9 broth containing 0.05% Tween 80, 0.2% dextrose and Middlebrook ADC enrichment. The microorganism solution was adjusted to about 1×10^7 CFU/mL using a spectrophotometer. The resulting microorganism solution was further diluted with Middlebrook 7H9 broth containing 0.05% Tween 80, 0.2% dextrose and Middlebrook ADC enrichment (final viable cell count: about 1×10^5 CFU/mL). After mixing the diluted microorganism solution with the diluted test compound solution in the test tube, cultivation was performed at 35° C. for 10–21 days. When significant growth was found in the control test tube with no test compound, the MIC was determined as the minimum concentration of the compound at which no colony was recognized macroscopically in the test tube.
Structure (SMILES),MIC [1] [µg/mL],MIC (M. tuberculosis Kato) [µg/mL]
"CO[C@H]1[C@@H](O)[C@H](n2ccc(=O)[nH]c2=O)O[C@@H]1[C@@H](O[C@H]1OC(C(=O)N[C@H]2CCCCNC2=O)=C[C@H](O)[C@@H]1O)C(N)=O [Capuramycin, capuramycin, reference compound]",8,–
CO[C@H]1[C@@H](O)[C@H](n2ccc(=O)[nH]c2=O)O[C@@H]1[C@@H](O[C@H]1OC(C(=O)Nc2ccc(F)c(F)c2)=C[C@H](O)[C@@H]1O)C(N)=O [Exemplification Compound No. 3712],2,1
